Measurements: US4172943A, “(8-Substituted-10-hydroxy-5,5-dimethyl-1,2 ,3,4-tetrahydro-5H-(1)benzopyrano(4,3-C)pyridin-2-yl)acetyl ureas and derivatives” (Abbott Laboratories, priority 1978, dated 1979)

Legend:
[1] = system: response time to radiated heat focused on the tail (rat tail flick); assay: Rat Tail Flick Test; assay type: in vivo, male, Sprague-Dawley rats; conditions: for average response time, 1 Hr. / Activity - Increase in Response Time (2 Hrs.) / average response time, 2 Hrs. / average response time, 3 Hrs.: p.o.
Procedure: In this test, groups of 10 male, Sprague-Dawley rats, weighing 142-170 g. were orally (p.o.) gavaged with compound (V) after the average normal response time to radiated heat focused on the tail had been established by two trials. Response times were recorded hourly for 3 hours after the administration of the compound. The activity was determined as the percent increase in response time over the average normal response for the response for the respective group. An ED50 value representing the dose producing a 50% increase in average response time was calculated by a linear regression program.

[2] = system: acetic acid writhing response; assay: Mouse (Acetic Acid) Writhing Test; assay type: in vivo, female, ICR mice; conditions: for Activity % Inhibition / Ave. Number of Writhes (20 min.): p.o., one hour before acetic acid; for Ave. Number of Writhes (20 min.): controls 55.0
Procedure: In this test, groups of 5 female, ICR mice (Schmidt) weighing 19-25 g. were orally (p.o.) gavaged with compound (V) one hour prior to the intraperitoneal injection of 0.4 ml. of acetic acid 0.5% (v/v). Five minutes after the acid injection, the number of writhing responses over a 20 minute period were counted. One group received an oral dose of vehicle only to serve as controls. Activity was determined as the percent difference (inhibition) between the average number of writhes for the test groups as compared to the controls. An ED50 value representing the dose producing a 50% inhibition of the writhing response was calculated by a linear regression program.

[3] = system: methamphetamine-induced hyperactivity in rats; assay: Rat Desoxyn Antagonism Test; assay type: in vivo; conditions: methamphetamine 1 mg./kg., i.p.
Procedure: In this test, the antagonism or potentiation of methamphetamine-induced hyperactivity in rats was evaluated in motor activity chambers equipped with photocells (Lehigh Valley, Model #1497). Groups of rats were premedicated with Compound (V) and then administered methamphetamine (1 mg./kg., i.p.). One rat was placed in each chamber and three rats were used per test dose. Effect was recorded as percent change in counts from the photocells compared to methamphetamine-treated controls.

Structure (SMILES): CC(CCCc1ccc(F)cc1)c1cc(O)c2c(c1)OC(C)(C)C1=C2CN(CC(=O)NC(N)=O)CC1 (centres unmarked) [Compound V, {{8-[5-(4-Fluorophenyl)-2-pentyl]-10-hydroxy-5,5-dimethyl-1,2,3,4-tetrahydro-5H-[1]benzopyrano[4,3-c]pyridin-2-yl}acetyl}urea]
- average response time, 1 Hr. ([1]; 1.0 mg./kg., Normal 8.03): 9.03 s
- Activity - Increase in Response Time (2 Hrs.) ([1]; 1.0 mg./kg., 2 hrs): 30.0%
- average response time, 2 Hrs. ([1]; 1.0 mg./kg., 2 hrs, Normal 8.03): 10.44 s
- average response time, 3 Hrs. ([1]; 1.0 mg./kg., Normal 8.03): 11.22 s
- average response time, 1 Hr. ([1]; 2.0 mg./kg., Normal 6.80): 8.92 s
- Activity - Increase in Response Time (2 Hrs.) ([1]; 2.0 mg./kg., 2 hrs): 56.0%
- average response time, 2 Hrs. ([1]; 2.0 mg./kg., 2 hrs, Normal 6.80): 10.61 s
- average response time, 3 Hrs. ([1]; 2.0 mg./kg., Normal 6.80): 10.99 s
- average response time, 1 Hr. ([1]; 4.0 mg./kg., Normal 8.30): 11.13 s
- Activity - Increase in Response Time (2 Hrs.) ([1]; 4.0 mg./kg., 2 hrs): 95.2%
- average response time, 2 Hrs. ([1]; 4.0 mg./kg., 2 hrs, Normal 8.30): 16.20 s
- average response time, 3 Hrs. ([1]; 4.0 mg./kg., Normal 8.30, average includes maximum values (30 seconds cut-off time)): 16.98 s
- average response time, 1 Hr. ([1]; 8.0 mg./kg., Normal 7.97, average includes maximum values (30 seconds cut-off time)): 13.63 s
- Activity - Increase in Response Time (2 Hrs.) ([1]; 8.0 mg./kg., 2 hrs): 98.6%
- average response time, 2 Hrs. ([1]; 8.0 mg./kg., 2 hrs, Normal 7.97, average includes maximum values (30 seconds cut-off time)): 15.83 s
- average response time, 3 Hrs. ([1]; 8.0 mg./kg., Normal 7.97): 14.32 s
- ED50 ([1]; Rattus norvegicus, po, 2 hrs, dose producing 50% increase in average response time, linear regression, (0.02, 3.19) printed after value): 1.6 mg/kg
- Activity % Inhibition ([2]; 0.5 mg./kg.): 48.4%
- Ave. Number of Writhes (20 min.) ([2]; 0.5 mg./kg.): 28.4
- Activity % Inhibition ([2]; 1.0 mg./kg.): 50.2%
- Ave. Number of Writhes (20 min.) ([2]; 1.0 mg./kg.): 27.4
- Activity % Inhibition ([2]; 2.0 mg./kg.): 72.4%
- Ave. Number of Writhes (20 min.) ([2]; 2.0 mg./kg.): 15.2
- Activity % Inhibition ([2]; 4.0 mg./kg.): 89.1%
- Ave. Number of Writhes (20 min.) ([2]; 4.0 mg./kg.): 6.0
- ED50 ([2]; Mus musculus, po, dose producing 50% inhibition of writhing response, linear regression, (0.4, 1.0) printed after value): 0.7 mg/kg
- % Decreased Activity Over Control ([3]; oral dose 5 mg./kg.): 75%
- % Decreased Activity Over Control ([3]; oral dose 20 mg./kg.): 93%
- % Decreased Activity Over Control ([3]; oral dose 80 mg./kg.): 84%
